± gives the expanded uncertainty stated by the source.
Key:
[1] = Crystal; DTA
[2] = Molar enthalpy of transition or fusion; details: Crystal; DSC

Normal melting temperature [1]: 219.20 ± 1 °C
Molar enthalpy of transition or fusion [2]: 6.55 ± 0.956 kcal/mol
SMILES: O=C(O)C=Cc1ccc(O)cc1 [3-(4-hydroxyphenyl)-2-propenoic acid]
